Experiments:
[1] = tested on: individuals with essential tremor; assay: Phase 2 study, Compound 1 60 mg once daily for 28 days: TETRAS performance subscale part 4/6/7/8 total score; assay type: in vivo, human; details: Full Analysis Set
Method: 4) Upper limb tremor: Tremor is assessed during three maneuvers: forward horizontal reach posture, lateral “wing beating” posture and finger-nose-finger testing. Each upper limb is assessed and scored individually. The forward horizontal reach posture is held for 5 seconds. The lateral wing beating posture is held for 20 seconds. The finger-nose-finger movement is executed three times. Amplitude assessment should be estimated using the maximally displaced point of the hand at the point of greatest displacement along any single plane. For example, the amplitude of a pure supination-pronation tremor, pivoting around the wrist would be assessed at either the thumb or fifth digit.
The lines of the spiral should be approximately 1.3 cm (0.5 inch) apart. Then ask the subject to copy the spiral. Test and score each hand separately. Use a ballpoint pen. The pen should be held such that no part of the limb touches the table. Secure the paper on the table in a location that is suitable for the patient's style of drawing. Score the tremor in the spiral, not the movement of the limb. Each limb is assessed and scored individually. 0=normal. 1=slight: tremor barely visible. 2=mild: obvious tremor. 3=moderate: portions of figure not recognizable. 4=severe: figure not recognizable.
7) Handwriting: Have patient write the standard sentence “This is a sample of my best handwriting” using the dominant hand only. Patients must write cursively (i.e., no printing). They cannot hold or stabilize their hand with the other hand. Use a ballpoint pen. Secure the paper on the table in a location that is suitable for the patient's style of writing. Score the tremor in the writing, not the movement of the limb. 0=normal. 1=slight: untidy due to tremor that is barely visible. 2=mild: legible, but with considerable tremor. 3=moderate: some words illegible. 4=severe: completely illegible.
8) Dot approximation task: The examiner makes a dot or X and instructs the subject to hold the tip of the pen “as close as possible to the dot (or center of an X) without touching it, (ideally approximately 1 mm) for 10 seconds.” Each hand is scored separately. 0=no tremor. 1=tremor is barely visible. 1.5=tremor is visible, but less than 1 cm. 2=tremor is 1-<3 cm amplitude. 2.5=tremor is 3-<5 cm amplitude. 3=tremor is 5-<10 cm amplitude. 3.5=tremor is 10-<20 cm amplitude. 4=tremor is >20 cm amplitude.
(§1) Participants were 18 to 80 years of age, inclusive, diagnosed of ET of at least 3 years duration with scores of at least 1.5 for each of the six items that comprised the combined total upper limb TETRAS (total performance subscale part 4) with the total score for the dominant upper limb (the sum of the 3 items for either the right or left upper limb, whichever is dominant) being at least 5.5, at both Screening and predose on Day 1.
(§2) Participants were randomized to receive Compound 1 60 mg or placebo once daily in the morning on a 1:1 basis. If participants reported a TEAE considered by investigator to be related to Compound 1 and not tolerable, investigator might reduce the dose of Compound 1 from 60 mg in 15 mg decrements (i.e., 60 mg, to 45 mg, to 30 mg), as medically appropriate. If intolerable TEAEs persist at the 30 mg dose, Compound 1 was permanently stopped.
(§3) This study included a Screening Period of up to 28 days, a 29-day treatment period consisting of 28 days of dosing with the end of treatment visit intended to be on Day 29 at trough, and a 14-day follow-up period relative to final dose. Study patients were not taking other medications for essential tremor during the 28-day treatment period.
Similarly, an MMRM was be used for the analysis of the following variables: changes from baseline in TETRAS performance subscale part 4, 6, 7, and 8 combined score, and TETRAS ADL score. For each model, the comparison of interest was between Compound 1 tablets and matching placebo at the 15-day time point. […]

[2] = tested on: individuals with essential tremor; assay: Phase 2 study, Compound 1 60 mg once daily for 28 days: TETRAS performance subscale total score; assay type: in vivo, human; details: Full Analysis Set
Method: As used herein, “The Essential Tremor Rating Assessment Scale (TETRAS) performance subscale total score” refers to an assessment scale for essential tremor developed by The Tremor Research Group (Elble, R. J., J. Neurol. Neuromedicine 1(4):34-38 (2016); Elble, R. J. et. al., Mov. Disord. 27(12); 1567-1569 (2012)). The TETRAS […] performance subscale includes 9 metrics or characteristics, wherein each metric or characteristic is scored 0 to 4. Some metrics or characteristics are performed on both right and left limbs and/or include multiple subitems. Scores for each of the 9 characteristics are then added to give a total score of no greater than 64. The 9 metrics or characteristics include:
as §1, §2, §3

With `COC[C@@]1(O)CC[C@H]2[C@@H](CC[C@@H]3[C@@H]2CC[C@]2(C)[C@@H](C(=O)Cn4nnc(C)n4)CC[C@@H]32)C1` [Compound 1] the “LSMean difference vs placebo in change from baseline in TETRAS performance subscale part 4/6/7/8 total score” value ([1]; Day 8) was −1.22, the “Model-based LSMean (SE) change from baseline in TETRAS performance subscale part 4/6/7/8 total score” value ([1]; Day 8) was −2.84 (0.579) and the “LSMean difference vs placebo in change from baseline in TETRAS performance subscale part 4/6/7/8 total score” value ([1]; Day 15, 5 hr postdose) was −1.03. For the same compound, the “Model-based LSMean (SE) change from baseline in TETRAS performance subscale part 4/6/7/8 total score” value ([1]; Day 15, 5 hr postdose) was −4.59 (0.840), the “LSMean difference vs placebo in change from baseline in TETRAS performance subscale part 4/6/7/8 total score” value ([1]; Day 15, 8 hr postdose) was −0.23 and the “Model-based LSMean (SE) change from baseline in TETRAS performance subscale part 4/6/7/8 total score” value ([1]; Day 15, 8 hr postdose) was −3.75 (0.755). The “LSMean difference vs placebo in change from baseline in TETRAS performance subscale part 4/6/7/8 total score” value ([1]; Day 15, predose) was −0.55, the “Model-based LSMean (SE) change from baseline in TETRAS performance subscale part 4/6/7/8 total score” value ([1]; Day 15, predose) was −2.63 (0.671) and the “LSMean difference vs placebo in change from baseline in TETRAS performance subscale part 4/6/7/8 total score” value ([1]; Day 22) was −0.77. For the same compound, the “Model-based LSMean (SE) change from baseline in TETRAS performance subscale part 4/6/7/8 total score” value ([1]; Day 22) was −2.93 (0.691), the “LSMean difference vs placebo in change from baseline in TETRAS performance subscale part 4/6/7/8 total score” value ([1]; Day 29) was −0.59 (−2.45, 1.28) and the “Model-based LSMean (SE) change from baseline in TETRAS performance subscale part 4/6/7/8 total score” value ([1]; Day 29) was −2.81 (0.699). The “LSMean difference vs placebo in change from baseline in TETRAS performance subscale part 4/6/7/8 total score” value ([1]; Day 29, listed as Cmpd 1) was −0.59, the “LSMean difference vs placebo in change from baseline in TETRAS performance subscale part 4/6/7/8 total score” value ([1]; Day 42) was 1.96 and the “Model-based LSMean (SE) change from baseline in TETRAS performance subscale part 4/6/7/8 total score” value ([1]; Day 42) was −1.17 (0.673). The “LSMean difference vs placebo in change from baseline in TETRAS performance subscale total score” value ([2]; Day 8) was −1.26, the “Model-based LSMean (SE) change from baseline in TETRAS performance subscale total score” value ([2]; Day 8) was −3.55 (0.780) and the “LSMean difference vs placebo in change from baseline in TETRAS performance subscale total score” value ([2]; Day 15, 5 hr postdose) was −1.52. For the same compound, the “Model-based LSMean (SE) change from baseline in TETRAS performance subscale total score” value ([2]; Day 15, 5 hr postdose) was −5.90 (1.015), the “LSMean difference vs placebo in change from baseline in TETRAS performance subscale total score” value ([2]; Day 15, 8 hr postdose) was 0.01 and the “Model-based LSMean (SE) change from baseline in TETRAS performance subscale total score” value ([2]; Day 15, 8 hr postdose) was −4.61 (0.954). The “LSMean difference vs placebo in change from baseline in TETRAS performance subscale total score” value ([2]; Day 15, predose) was −0.91, the “Model-based LSMean (SE) change from baseline in TETRAS performance subscale total score” value ([2]; Day 15, predose) was −3.46 (0.878) and the “LSMean difference vs placebo in change from baseline in TETRAS performance subscale total score” value ([2]; Day 22) was −0.24. The “Model-based LSMean (SE) change from baseline in TETRAS performance subscale total score” value ([2]; Day 22) was −3.16 (0.914), the “LSMean difference vs placebo in change from baseline in TETRAS performance subscale total score” value ([2]; Day 29) was −0.32 (−2.78, 2.14) and the “Model-based LSMean (SE) change from baseline in TETRAS performance subscale total score” value ([2]; Day 29) was −3.22 (0.922). The “LSMean difference vs placebo in change from baseline in TETRAS performance subscale total score” value ([2]; Day 29, listed as Cmpd 1) was −0.32, the “LSMean difference vs placebo in change from baseline in TETRAS performance subscale total score” value ([2]; Day 42) was 2.28 and the “Model-based LSMean (SE) change from baseline in TETRAS performance subscale total score” value ([2]; Day 42) was −1.59 (0.820).

Reference: US20240238314A1, “TREATMENT OF ESSENTIAL TREMOR” (Sage Therapeutics, Inc., priority 2021, published 2024)
